Measured values published in patent publication US10752626B2, “Iso-citrate dehydrogenase (IDH) inhibitor” (SHANGHAI METON PHARMACEUTICAL CO., LTD, priority 2016, dated 2020).

Experiment: in vitro
Settings: microsomes; for % remaining #1 / % remaining #2 / Ln (% remaining) #1 / Ln (% remaining) #2 / Mean Ln(% remaining): 1 μM, pH 7.4; for microsomal CLint at 1 μM: pH 7.4, CLint; for half-life at 1 μM: pH 7.4, T1/2
Method: The liver microsomes of mouse, rat, dog, monkey and human were purchased from Corning Inc., and were stored at −60° C. prior to use. The acetonitrile and NADPH were purchased from Honeywell International Inc. (New Jersey, U.S.) and Roche Inc. (Basel, Swiss).
Reactions were initiated by adding NADPH to a final concentration of 1 mM. The final volume of each reaction mixture was 0.2 ml, and all reactions were performed in duplicate. At each set time point (0, 5, 15, 30 and 60 min), a small aliquot (e.g., 20 μl) was transferred from the reaction system into ice-cold internal standard (IS) containing acetonitrile to quench the reaction and to precipitate the protein. After vortex and centrifuge at 3700 rpm for 10 min, the supernatant was injected into LC-MS/MS for analysis.
In vitro microsomal clearance was estimated based on determination of elimination half-life (T1/2) of compounds disappearance from their initial concentrations. Peak area ratios of each compound (test or control) to IS was calculated. Ln (% Control) versus Incubation Time (min) curve was plotted, and the slope of a linear fitting line was calculated. Drug elimination rate constant k (min^−1), T1/2 (min), and in vitro intrinsic clearance CLint (mL·min^−1·mg^−1 proteins) was calculated according to the following equations: k=−slope T1/2=0.693/k CLint=k/Cprotein where Cprotein (mg·mL^−1) is the microsomal protein concentration in the incubation system. Test 3: Metabolic Stability Assay in Mouse Plasma
In this study, the metabolic stability of the compounds was assessed in mouse, rat, dog, monkey and human liver microsome according to the method disclosed in Test 2 of the Biological evaluation section.

CCN1Cc2c(ccnc2N[C@@H](C)c2ccc(Oc3ccc(C)cc3)cc2)C1=O [Compound 16, (S)-2-ethyl-4-(1-(4-(p-tolyloxy)phenyl)ethylamino)-2,3-dihydro-1H-pyrrolo [3,4-c]pyridin-1-one]
% remaining #1 (dog, 0 h): 100%
% remaining #2 (dog, 0 h): 100%
Ln (% remaining) #1 (dog, 0 h): 4.61
Ln (% remaining) #2 (dog, 0 h): 4.61
Mean Ln(% remaining) (dog, 0 h): 4.61
% remaining #1 (dog, 5 min): 105%
% remaining #2 (dog, 5 min): 106%
Ln (% remaining) #1 (dog, 5 min): 4.65
Ln (% remaining) #2 (dog, 5 min): 4.66
Mean Ln(% remaining) (dog, 5 min): 4.66
% remaining #1 (dog, 0.25 h): 94.6%
% remaining #2 (dog, 0.25 h): 85.4%
Ln (% remaining) #1 (dog, 0.25 h): 4.55
Ln (% remaining) #2 (dog, 0.25 h): 4.45
Mean Ln(% remaining) (dog, 0.25 h): 4.50
% remaining #1 (dog, 0.5 h): 76.5%
% remaining #2 (dog, 0.5 h): 76.0%
Ln (% remaining) #1 (dog, 0.5 h): 4.34
Ln (% remaining) #2 (dog, 0.5 h): 4.33
Mean Ln(% remaining) (dog, 0.5 h): 4.33
% remaining #1 (dog, 1 h): 52.8%
% remaining #2 (dog, 1 h): 48.8%
Ln (% remaining) #1 (dog, 1 h): 3.97
Ln (% remaining) #2 (dog, 1 h): 3.89
Mean Ln(% remaining) (dog, 1 h): 3.93
microsomal CLint at 1 μM (dog): 23 µL/min/mg
half-life at 1 μM (dog): 60.3 min
stability in human liver microsome (human): medium stability
% remaining #1 (human, 0 h): 100%
% remaining #2 (human, 0 h): 100%
Ln (% remaining) #1 (human, 0 h): 4.61
Ln (% remaining) #2 (human, 0 h): 4.61
Mean Ln(% remaining) (human, 0 h): 4.61
% remaining #1 (human, 5 min): 87.1%
% remaining #2 (human, 5 min): 90.5%
Ln (% remaining) #1 (human, 5 min): 4.47
Ln (% remaining) #2 (human, 5 min): 4.51
Mean Ln(% remaining) (human, 5 min): 4.49
% remaining #1 (human, 0.25 h): 65.7%
% remaining #2 (human, 0.25 h): 69.0%
Ln (% remaining) #1 (human, 0.25 h): 4.18
Ln (% remaining) #2 (human, 0.25 h): 4.23
Mean Ln(% remaining) (human, 0.25 h): 4.21
% remaining #1 (human, 0.5 h): 51.7%
% remaining #2 (human, 0.5 h): 50.5%
Ln (% remaining) #1 (human, 0.5 h): 3.95
Ln (% remaining) #2 (human, 0.5 h): 3.92
Mean Ln(% remaining) (human, 0.5 h): 3.93
% remaining #1 (human, 1 h): 26.2%
% remaining #2 (human, 1 h): 25.4%
Ln (% remaining) #1 (human, 1 h): 3.27
Ln (% remaining) #2 (human, 1 h): 3.23
Mean Ln(% remaining) (human, 1 h): 3.25
microsomal CLint at 1 μM (human): 43.6 µL/min/mg
half-life at 1 μM (human): 31.8 min
% remaining #1 (monkey, 0 h): 100%
% remaining #2 (monkey, 0 h): 100%
Ln (% remaining) #1 (monkey, 0 h): 4.61
Ln (% remaining) #2 (monkey, 0 h): 4.61
Mean Ln(% remaining) (monkey, 0 h): 4.61
% remaining #1 (monkey, 5 min): 66.1%
% remaining #2 (monkey, 5 min): 72.7%
Ln (% remaining) #1 (monkey, 5 min): 4.19
Ln (% remaining) #2 (monkey, 5 min): 4.29
Mean Ln(% remaining) (monkey, 5 min): 4.24
% remaining #1 (monkey, 0.25 h): 32.5%
% remaining #2 (monkey, 0.25 h): 35.4%
Ln (% remaining) #1 (monkey, 0.25 h): 3.48
Ln (% remaining) #2 (monkey, 0.25 h): 3.57
Mean Ln(% remaining) (monkey, 0.25 h): 3.52
% remaining #1 (monkey, 0.5 h): 12.5%
% remaining #2 (monkey, 0.5 h): 12.2%
Ln (% remaining) #1 (monkey, 0.5 h): 2.53
Ln (% remaining) #2 (monkey, 0.5 h): 2.51
Mean Ln(% remaining) (monkey, 0.5 h): 2.52
% remaining #1 (monkey, 1 h): 2.13%
% remaining #2 (monkey, 1 h): 2.06%
Ln (% remaining) #1 (monkey, 1 h): 0.757
Ln (% remaining) #2 (monkey, 1 h): 0.725
Mean Ln(% remaining) (monkey, 1 h): 0.741
microsomal CLint at 1 μM (monkey): 127 µL/min/mg
half-life at 1 μM (monkey): 10.9 min
% remaining #1 (mouse, 0 h): 100%
% remaining #2 (mouse, 0 h): 100%
Ln (% remaining) #1 (mouse, 0 h): 4.61
Ln (% remaining) #2 (mouse, 0 h): 4.61
Mean Ln(% remaining) (mouse, 0 h): 4.61
% remaining #1 (mouse, 5 min): 88.1%
% remaining #2 (mouse, 5 min): 94.2%
Ln (% remaining) #1 (mouse, 5 min): 4.48
Ln (% remaining) #2 (mouse, 5 min): 4.55
Mean Ln(% remaining) (mouse, 5 min): 4.51
% remaining #1 (mouse, 0.25 h): 72.7%
% remaining #2 (mouse, 0.25 h): 80.8%
Ln (% remaining) #1 (mouse, 0.25 h): 4.29
Ln (% remaining) #2 (mouse, 0.25 h): 4.39
Mean Ln(% remaining) (mouse, 0.25 h): 4.34
% remaining #1 (mouse, 0.5 h): 31.0%
% remaining #2 (mouse, 0.5 h): 43.8%
Ln (% remaining) #1 (mouse, 0.5 h): 3.43
Ln (% remaining) #2 (mouse, 0.5 h): 3.78
Mean Ln(% remaining) (mouse, 0.5 h): 3.61
% remaining #1 (mouse, 1 h): 10.6%
% remaining #2 (mouse, 1 h): 12.0%
Ln (% remaining) #1 (mouse, 1 h): 2.36
Ln (% remaining) #2 (mouse, 1 h): 2.48
Mean Ln(% remaining) (mouse, 1 h): 2.42
microsomal CLint at 1 μM (mouse): 77.4 µL/min/mg
half-life at 1 μM (mouse): 17.9 min
% remaining #1 (rat, 0 h): 100%
% remaining #2 (rat, 0 h): 100%
Ln (% remaining) #1 (rat, 0 h): 4.61
Ln (% remaining) #2 (rat, 0 h): 4.61
Mean Ln(% remaining) (rat, 0 h): 4.61
% remaining #1 (rat, 5 min): 90.0%
% remaining #2 (rat, 5 min): 111%
Ln (% remaining) #1 (rat, 5 min): 4.50
Ln (% remaining) #2 (rat, 5 min): 4.71
Mean Ln(% remaining) (rat, 5 min): 4.61
% remaining #1 (rat, 0.25 h): 59.4%
% remaining #2 (rat, 0.25 h): 92.3%
Ln (% remaining) #1 (rat, 0.25 h): 4.09
Ln (% remaining) #2 (rat, 0.25 h): 4.53
Mean Ln(% remaining) (rat, 0.25 h): 4.31
% remaining #1 (rat, 0.5 h): 35.8%
% remaining #2 (rat, 0.5 h): 62.9%
Ln (% remaining) #1 (rat, 0.5 h): 3.58
Ln (% remaining) #2 (rat, 0.5 h): 4.14
Mean Ln(% remaining) (rat, 0.5 h): 3.86
% remaining #1 (rat, 1 h): 14.0%
% remaining #2 (rat, 1 h): 24.1%
Ln (% remaining) #1 (rat, 1 h): 2.64
Ln (% remaining) #2 (rat, 1 h): 3.18
Mean Ln(% remaining) (rat, 1 h): 2.91
microsomal CLint at 1 μM (rat): 66.5 µL/min/mg
half-life at 1 μM (rat): 20.8 min
